Assay [1] has as its target Squalene monooxygenase (Sus scrofa). Description: The compound was tested for its inhibitory activity against pig Squalene epoxidase at pH 7.4.
Assay [2] shares this target. Description: The compound was tested for its inhibitory activity against pig Squalene epoxidase at pH 8.8.

What is called IC50 is the concentration that inhibits the measured activity by half. Low readings indicate inhibition by little substance, high ones a need for much substance. `CC(C)=CCC/C(=C/CC/C(C)=C/CC/C=C(\C)CC/C=C(\C)CCC=C(C)C)CN` [6,11,15,19-tetramethyl-2-(4-methyl-3-pentenyl)-(2Z,6E,10E,14E)-2,6,10,14,18-icosapentaen-1-amine]: the IC50 amounted to 109 µM in assay [1] and 32 µM in assay [2].

Source of the values: BindingDB's records for doi:10.1016/0960-894X(95)00058-2 (1995).
